The source of these data is patent US8378104B2 (OSI Pharmaceuticals, LLC, priority 2010, dated 2013).

Structures can show the parent of a compound that is named as a salt.

The target in one assay is T1, TAK1-TAB1 fusion protein (Homo sapiens, UniProt O43318).
T1 construct: purchased Carna
T1 sequence (O43318 with tags, fused parts or gaps limits assumed): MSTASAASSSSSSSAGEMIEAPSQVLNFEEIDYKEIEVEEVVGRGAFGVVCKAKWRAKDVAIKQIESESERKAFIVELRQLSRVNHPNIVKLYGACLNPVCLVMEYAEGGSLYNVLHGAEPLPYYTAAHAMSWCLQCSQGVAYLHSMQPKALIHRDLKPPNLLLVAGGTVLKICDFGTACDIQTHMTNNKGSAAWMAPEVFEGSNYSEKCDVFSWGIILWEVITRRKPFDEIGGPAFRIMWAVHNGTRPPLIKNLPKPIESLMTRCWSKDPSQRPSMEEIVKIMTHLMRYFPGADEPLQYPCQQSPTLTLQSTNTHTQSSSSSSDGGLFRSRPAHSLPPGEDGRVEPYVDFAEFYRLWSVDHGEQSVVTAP
Description: TAK1 biochemical assay (AlphaScreen, GST-MAP2K7 substrate).
Details: not given
A general note: Bead proximity is the source of the signal in Alpha formats.
As usually defined, the IC50 is the concentration needed to halve the response being measured. Consider `CC(=O)N1CCC(n2cc(-c3cnc(N)c4oc(C5=CCNCC5)cc34)cn2)CC1` [Example 95, 1-(4-{4-[7-amino-2-(1,2,3,6-tetrahydropyridin-4-yl)furo[2,3-c]pyridin-4-yl]-1H-pyrazol-1-yl}piperidin-1-yl)ethanone hydrochloride], for which the IC50 fell in the range of 100 to 1000 nM.

The same assay, now with this note: TAK1-TAB1 fusion protein, GST-MAP2K7 substrate; read-out: mean TAK1 IC50 (Col. A).
Consider `Nc1ncc(-c2cnn(C3CCNCC3)c2)c2cc(-c3ccn[nH]3)oc12` [Example 27, 4-[1-(piperidin-4-yl)-1H-pyrazol-4-yl]-2-(1H-pyrazol-5-yl)furo[2,3-c]pyridine-7-amine], for which the IC50 lay in the range of 1000 to 10000 nM.

`Cn1cc(-c2cnc(N)c3oc(-c4ccccc4)cc23)cn1` [Example 56, 4-(1-methyl-1H-pyrazol-4-yl)-2-phenylfuro[2,3-d]pyridin-7-amine]: the IC50 is above 10000 nM.

As to `CC(=O)N1CCC(n2cc(-c3cnc(N(C)C)c4oc(-c5csc6cnccc56)cc34)cn2)CC1` [Example 276, 1-(4-{4-[7-(dimethylamino)-2-(thieno[2,3-c]pyridin-3-yl)furo[2,3-c]pyridin-4-yl]-1H-pyrazol-1-yl}piperidin-1-yl)ethanone trifluoroacetic acid salt], the IC50 was 1000 to 10000 nM.

As for `Cc1nn(C[C@H](O)CO)cc1-c1cnc(N)c2oc(-c3csc4cnccc34)cc12` [Example 318, (S)-3-[4-(7-amino-2-thieno[2,3-d]pyridin-3-yl-furo[2,3-d]pyridin-4-yl)-3-methyl-pyrazol-1-yl]-propane-1,2-diol], the IC50 is 1000 to 10000 nM.

As to `Cn1cnc(-c2cnc(N)c3oc(-c4csc5cnccc45)cc23)c1` [Example 395, 4-(1-methyl-1H-imidazol-4-yl)-2-thieno[2,3-c]pyridin-3-yl-furo[2,3-c]pyridin-7-ylamine], the IC50 is above 10000 nM.

For `CN(C)c1nc2cccc(-c3cc4c(-c5cnn([C@H]6CC[C@H](O)CC6)c5)cnc(N)c4o3)c2s1` [Example 371, trans-4-(4-{7-amino-2-[2-(dimethylamino)-1,3-benzothiazol-7-yl]furo[2,3-c]pyridin-4-yl}-1H-pyrazol-1-yl)cyclohexanol Trifluoroacetate (Salt)], the IC50 lay within 1000 to 10000 nM.

With `COC(=O)c1cc2cc(-c3cc4c(-c5cnn(C6CCNCC6)c5)cnc(N)c4o3)ccc2s1` [Example 47, methyl 5-{7-amino-4-[1-(piperidin-4-yl)-1H-pyrazol-4-yl]furo[2,3-c]pyridine-2-yl}-1-benzothiophene-2-carboxylate], the IC50 fell in the range of 1000 to 10000 nM.

With `CC(=O)N1CCC(n2cc(-c3cnc(N)c4oc(-c5cccc(N(C)C)c5)cc34)cn2)CC1` [Example 116], the IC50 is 1000 to 10000 nM.

As to `N#Cc1sccc1-c1cnc(N)c2oc(-c3csc4cnccc34)cc12` [Example 384], the IC50 was above 10000 nM.

For the compound `CC(=O)N1CCC(n2cc(-c3cnc(N)c4oc(-c5ccc(N)nc5)cc34)cn2)CC1` [Example 147, 1-(4-{4-[7-amino-2-(6-aminopyridin-3-yl)furo[2,3-c]pyridin-4-yl]-1H-pyrazol-1-yl}piperidin-1-yl)ethanone], the IC50 is 100 to 1000 nM.

For `CC(=O)Nc1ccc(-c2cc3c(-c4cnn(C5CCN(C(C)=O)CC5)c4)cnc(N)c3o2)cn1` [Example 126, N-(5-{4-[1-(1-acetylpiperidin-4-yl)-1H-pyrazol-4-yl]-7-aminofuro[2,3-c]pyridin-2-yl}pyridin-2-yl)acetamide], the IC50 lay in the range of 1000 to 10000 nM.

Turning to `COc1cccc(-c2cc3c(-c4cnn(C5CCN(C(C)=O)CC5)c4)cnc(N)c3o2)c1` [Example 161, 1-(4-{4-[7-amino-2-(3-methoxyphenyl)furo[2,3-c]pyridin-4-yl]-1H-pyrazol-1-yl}piperidin-1-yl)ethanone], the IC50 lay within 1000 to 10000 nM.

As for `CCOC(=O)[C@H]1CC[C@H](n2cc(-c3cnc(N)c4oc(-c5csc6cnccc56)cc34)c(C)n2)CC1` [Example 298, 4-[4-(7-amino-2-thieno[2,3-c]pyridin-3-yl-furo[2,3-c]pyridin-4-yl)-3-methyl-pyrazol-1-yl]-cyclohexane carboxylic acid ethyl ester], the IC50 was above 10000 nM.

For `COc1c(F)cccc1-c1cc2c(-c3cnn(C4CCNCC4)c3)cnc(N)c2o1` [Example 5, 2-(3-fluoro-2-methoxyphenyl)-4-[1-(piperidin-4-yl)-1H-pyrazol-4-yl]furo[2,3-c]pyridin-7-amine dihydrochloride], the IC50 lay in the range of 1000 to 10000 nM.

On to `Nc1ncc(-c2cnn([C@H]3CC[C@H](O)CC3)c2)c2cc(-c3cc(C(F)(F)F)cc(C(F)(F)F)c3)oc12` [Example 401, trans-4-(4-{7-amino-2-[3,5-bis(trifluoromethyl)phenyl]furo[2,3-d]pyridin-4-yl}-1H-pyrazol-1-yl)cyclohexanol], for which the IC50 was above 10000 nM.

Turning to `CC(=O)N1CCC(n2cc(-c3cnc(N)c4oc(-c5ccc(N)c(C)c5)cc34)cn2)CC1` [Example 140, 1-(4-{4-[7-amino-2-(4-amino-3-methylphenyl)furo[2,3-c]pyridin-4-yl]-1H-pyrazol-1-yl}piperidin-1-yl)ethanone], the IC50 was 1000 to 10000 nM.

As for `CC(=O)N1CCC(n2cc(-c3cnc(N)c4oc(-c5ccc(CC#N)cc5)cc34)cn2)CC1` [Example 179, (4-{4-[1-(1-acetylpiperidin-4-yl)-1H-pyrazol-4-yl]-7-aminofuro[2,3-c]pyridin-2-yl}phenyl)acetonitrile], the IC50 lay within 1000 to 10000 nM.

For `CC(=O)N1CCC(n2cc(-c3cnc(N)c4oc(-c5cccc(OCc6ccccc6)c5)cc34)cn2)CC1` [Example 164, 1-[4-(4-{7-amino-2-[3-(benzyloxy)phenyl]furo[2,3-c]pyridin-4-yl}-1H-pyrazol-1-yl)piperidin-1-yl]ethanone], the IC50 is above 10000 nM.

Regarding `CC(=O)N1CCC(n2cc(-c3cnc(N)c4oc(-c5ccc(N)c(C#N)c5)cc34)cn2)CC1` [Example 104, 5-{4-[1-(1-acetylpiperidin-4-yl) 1H-pyrazol-4-yl]-7-aminofuro[2,3-c]pyridin-2-yl}-2-aminobenzonitrile], the IC50 was in the range of 1000 to 10000 nM.

In the case of `Nc1ncc(-c2cnn(C3CCNCC3)c2)c2cc(-c3cccc4ccccc34)oc12` [Example 3, 2-(naphthalen-1-yl)-4-[1-(piperidin-4-yl)-1H-pyrazol-4-yl]furo[2,3-c]pyridin-7-amine], the IC50 fell in the range of 1000 to 10000 nM.

Take `CC(=O)N1CCC(n2cc(-c3cnc(N)c4oc(-c5ccc6cc[nH]c6c5)cc34)cn2)CC1` [Example 167, 1-(4-{4-[7-amino-2-(1H-indol-6-yl)furo[2,3-c]pyridin-4-yl}-1H-pyrazol-1-yl}piperidin-1-yl)ethanone]: the IC50 was 1000 to 10000 nM.

With `CCOc1cc2c(-c3cc4c(-c5cnn(C6CCN(C(C)=O)CC6)c5)cnc(N)c4o3)csc2cn1` [Example 245, 1-(4-{4-[7-amino-2-(5-ethoxythieno[2,3-c]pyridin-3-yl)furo[2,3-c]pyridin-4-yl]-1H-pyrazol-1-yl}piperidin-1-yl)ethanone bis(trifluoroacetate)], the IC50 was 100 to 1000 nM.

With `Nc1ncc(-c2cnn(C3CCNCC3)c2)c2cc(-c3cccc4cn[nH]c34)oc12` [Example 45, 2-(1H-indazol-7-yl)-4-[1-(piperidin-4-yl)-1H-pyrazol-4-yl]furo[2,3-c]pyridin-7-amine], the IC50 was in the range of 100 to 1000 nM.

On to `Nc1ncc(-c2cnn(CC(O)CO)c2)c2cc(-c3cccc4cnccc34)oc12` (centres unmarked) [Example 66, 3-{4-[7-amino-2-(isoquinolin-5-yl)furo[2,3-c]pyridin-4-yl]-1H-pyrazol-1-yl}propane-1,2-diol], for which the IC50 was 1000 to 10000 nM.

With `Nc1ncc(-c2cnn(C3CCNCC3)c2)c2c(Cl)c(-c3cccc4ccsc34)oc12` [Example 13, 2-(1-benzothiophen-7-yl)-3-chloro-4-[1-(piperidin-4-yl)-1H-pyrazol-4-yl]furo[2,3-c]pyridin-7-amine hydrochloride], the IC50 was below 100 nM.

In the case of `Nc1ncc(-c2cnn([C@H]3CC[C@H](O)CC3)c2)c2cc(-c3cc(-c4cc[nH]n4)cc4nnsc34)oc12` [Example 374, trans-4-(4-{7-amino-2-[5-(1H-pyrazol-3-yl)-1,2,3-benzothiadiazol-7-yl]furo[2,3-c]pyridin-4-yl}-1H-pyrazol-1-yl)cyclohexanol], the IC50 was in the range of 100 to 1000 nM.

For `CC(=O)N1CCC(n2cc(-c3cnc(N)c4oc(-c5cnc6cnccn56)cc34)cn2)CC1` [Example 274, 1-(4-{4-[7-amino-2-(imidazol[1,2-a]pyrazin-3-yl)furo[2,3-c]pyridin-4-yl]-1H-pyrazol-1-yl}piperidin-1-yl)ethanone trifluoroacetic acid salt], the IC50 was in the range of 1000 to 10000 nM.

With `Nc1ncc(-c2cnn(C3CCNCC3)c2)c2c(Cl)c(-c3ccc4[nH]ccc4c3)oc12` [Example 14, 3-chloro-2-(1H-indol-5-yl)-4-[1-(piperidin-4-yl)-1H-pyrazol-4-yl]furo[2,3-c]pyridin-7-amine hydrochloride], the IC50 lay within 1000 to 10000 nM.

For the compound `Cc1cc(-c2cnc(N)c3oc(-c4csc5cnccc45)cc23)cs1` [Example 393, 4-(5-methylthiophen-3-yl)-2-(thieno[2,3-c]pyridin-3-yl)furo[2,3-c]pyridin-7-amine trifluoroacetate], the IC50 lay within 1000 to 10000 nM.

For `N#Cc1ccsc1-c1cnc(N)c2oc(-c3csc4cnccc34)cc12` [Example 383, 2-(7-amino-2-thieno[2,3-c]pyridin-3-yl-furo[2,3-c]pyridin-4-yl)-thiophene-3-carbonitrile], the half-inhibitory concentration (IC50) was above 10000 nM.

With `Nc1ncc(-c2cnn(C3CCNCC3)c2)c2cc(-c3cccc(Cl)c3Cl)oc12` [Example 4, 2-(2,3-dichlorophenyl)-4-[1-(piperidin-4-yl)-1H-pyrazol-4-yl]furo[2,3-c]pyridin-7-amine], the IC50 was 1000 to 10000 nM.
